In patent US8796297B2, “4-substituted-2-amino-pyrimidine derivatives” (AbbVie Inc., priority 2009, dated 2014):
Where a name gives a salt, the structure may show the parent alone.

Tests used:
[1] = molecular target: T1, human histamine H3 receptor (Homo sapiens (Human), UniProt Q9Y5N1); assay: Radioligand competition binding assay, human H3 receptor; settings: [3H]-N-α-methylhistamine competition binding
human H3R = human H3R (Homo sapiens (Human), UniProt Q9Y5N1); assay: GTPγS functional assay, membranes from HEK cells expressing the human H3R; type: biochemical; settings: for Emax: 5 min, [35S]GTPγS bound as percentage of basal, read-out: Human Maximum (%); for EC50: GTPγS agonist potency
Protocol: (§1) Membranes from HEK cells expressing the human H3R, or from C6 cells expressing the rat H3R, were prepared by homogenization in cold buffer containing 50 mM Tris-HCl (pH 7.4), 5 mM EDTA, 10 mM MgCl2, 1 mM benzamidine, 2 μg/ml aprotinin, 1 μg/ml leupeptin, and 1 μg/ml pepstatin. The homogenate was centrifuged at 40,000 g for 20 min at 4° C., and the resulting pellet was resuspended in 50 mM Tris-HCl (pH 7.4), 5 mM EDTA, and 10 mM MgCl2 and homogenized. Glycerol and bovine serum albumin were added to a final concentration of 10% glycerol and 1% bovine serum albumin. Membranes were diluted in GTPγS assay buffer (25 mM HEPES, 2.5 mM MgCl2, and 75 mM NaCl, pH 7.4) and 10 μg of membrane protein was incubated in a 96-well deep-well block in the presence of 5.0 μM unlabeled GDP, approximately 0.5 nM of [^35S]GTPγS, and increasing concentrations of test compounds. Samples were incubated at 37° C. for 5 min and the assays were terminated by the addition of cold buffer (50 mM Tris-HCl, 75 mM NaCl, and 2.5 mM MgCl2, pH 7.6) and subsequent harvesting onto a Packard Unifilter 96-well GF/B plate followed by extensive washing. Microscint 20 (PerkinElmer Life Sciences) was added to the samples, and bound [^35S]GTPγS was determined using the Topcount (Perkin Elmer Life Sciences). The percentage of [^35S]GTPγS bound in each sample was calculated as a percentage of that bound to control samples incubated in the absence of the H3R agonists (basal). Data were analyzed from experiments performed in triplicate using GraphPad Prism to obtain pEC50 values, Hill slopes, and maximal % response.

rat H3R = rat H3R (Rattus norvegicus (Rat), UniProt Q9QYN8); assay: GTPγS functional assay, membranes from C6 cells expressing the rat H3R; type: biochemical; settings: for Emax: 5 min, read-out: Rat Maximum (%); for EC50: GTPγS agonist potency
Protocol: as §1

[2] = molecular target: T2, rat histamine H3 receptor (Rattus norvegicus (Rat), UniProt Q9QYN8); assay: Radioligand competition binding assay, rat H3 receptor; settings: [3H]-N-α-methylhistamine competition binding
Protocol: To determine the effectiveness of representative compounds of this invention as histamine-3 receptor ligands (H3 receptor ligands), the following tests were conducted according to previously described methods (see European Journal of Pharmacology 1990, 188, 219-227; Journal of Pharmacology and Experimental Therapeutics 1995, 275, 598-604; Journal of Pharmacology and Experimental Therapeutics 1996, 276, 1009-1015; and Biochemical Pharmacology 1973, 22, 3099-3108).
The rat H3 receptor was cloned and expressed in cells, and competition binding assays carried out, according to methods previously described (see Esbenshade, et al. Journal of Pharmacology and Experimental Therapeutics 2005, 313, 165-175; Esbenshade et al., Biochemical Pharmacology 2004, 68, 933-945; and Krueger, et al. Journal of Pharmacology and Experimental Therapeutics 2005, 314, 271-281). Membranes were prepared from C6 or HEK293 cells, expressing the rat histamine H3 receptor, by homogenization on ice in TE buffer (50 mM Tris-HCl buffer, pH 7.4, containing 5 mM EDTA), 1 mM benzamidine, 2 μg/ml aprotinin, 1 μg/ml leupeptin, and 1 μg/ml pepstatin. The homogenate was centrifuged at 40,000 g for 20 minutes at 4° C. This step was repeated, and the resulting pellet was resuspended in TE buffer. Aliquots were frozen at −70° C. until needed. On the day of assay, membranes were thawed and diluted with TE buffer.
Membrane preparations were incubated with [^3H]-N-α-methylhistamine (0.5-1.0 nM) in the presence or absence of increasing concentrations of ligands for H3 receptor competition binding. The binding incubations were conducted in a final volume of 0.5 ml TE buffer at 25° C. and were terminated after 30 minutes. Thioperamide (30 μM) was used to define non-specific binding. All binding reactions were terminated by filtration under vacuum onto polyethylenimine (0.3%) presoaked Unifilters (Perkin Elmer Life Sciences) or Whatman GF/B filters followed by three brief washes with 2 ml of ice-cold TE buffer. Bound radiolabel was determined by liquid scintillation counting. For all of the radioligand competition binding assays, IC50 values and Hill slopes were determined by Hill transformation of the data and pKi values were determined by the Cheng-Prusoff equation.

[3] = molecular target: T1, human histamine H3 receptor; assay: FLIPR functional assay (Ca2+, HEK-293 cells coexpressing Gαqi5), human H3 receptor; type: cell-based; settings: for EC50: FLIPR agonist potency; for Emax: HEK293, FLIPR, percentage of the response to 1 μM RAMH, read-out: Human Maximum (%)
From the text: (§2) There are many methods available to show the effectiveness of compounds as histamine H3 receptor ligands. Histamine H3 receptors from mammalian species have been cloned. Methods to clone, express, and assess the potency and functional activity of such cloned genes are well known to those skilled in the art of molecular biology. […] In the present case, to determine the potency and effectiveness of representative compounds of this invention as histamine-H3 receptor ligands (H3 receptor ligands), the following tests were conducted according to previously described methods (see Esbenshade, et al., Journal of Pharmacology and Experimental Therapeutics 2003, 305, 887-896, Esbenshade, et al., Biochemical Pharmacology 2004, 68, 933-945, and in Krueger, et al., Journal of Pharmacology and Experimental Therapeutics 2005, 314, 271-281): histamine H3 receptors were cloned and stably expressed in HEK-293 (human embryonic kidney) cells coexpressing a Gαqi5. Before testing, cells were loaded with a Ca^+2 sensitive fluorescent dye, in this case Fluo-4. For partial agonist or full agonist ligands, addition of compound to the cells led to an increase in intracellular Ca^+2 which was detected by FLIPR (Fluorescence Imaging Plate Reader; Molecular Devices, Sunnyvale, Calif.) technology. The fluorescence intensities measured before addition of the test compound were subtracted from the fluorescence intensities at later time points. Peak response values determined at each concentration of ligand were expressed as a percentage of the response obtained with a maximal concentration (1 μM) of the full agonist R-α-methyl-histamine (RAMH). Concentration versus response data were analyzed to obtain compound potency as EC50 values for full and partial agonists.

[4] = molecular target: T2, rat histamine H3 receptor; assay: FLIPR functional assay (Ca2+, HEK-293 cells coexpressing Gαqi5), rat H3 receptor; type: cell-based; settings: for EC50: FLIPR agonist potency; for Rat Maximum (%): FLIPR, percentage of the response to 1 μM RAMH
From the text: as §2

[5] = [35S]GTPγS bound as percentage of basal

human H3R, sequence (Q9Y5N1 whole entry): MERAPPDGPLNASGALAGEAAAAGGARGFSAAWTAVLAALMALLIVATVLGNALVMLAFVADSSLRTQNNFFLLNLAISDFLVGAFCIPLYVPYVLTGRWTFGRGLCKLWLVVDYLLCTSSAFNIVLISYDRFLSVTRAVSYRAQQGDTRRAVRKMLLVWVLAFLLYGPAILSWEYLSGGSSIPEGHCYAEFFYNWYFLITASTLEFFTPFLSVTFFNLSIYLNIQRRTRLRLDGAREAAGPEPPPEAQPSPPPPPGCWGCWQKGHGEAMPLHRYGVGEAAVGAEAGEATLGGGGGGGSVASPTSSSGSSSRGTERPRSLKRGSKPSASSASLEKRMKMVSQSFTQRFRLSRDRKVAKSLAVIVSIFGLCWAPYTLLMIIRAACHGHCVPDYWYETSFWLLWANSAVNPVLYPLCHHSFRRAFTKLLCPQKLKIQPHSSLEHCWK
T1 sequence (Q9Y5N1 whole entry): as above
rat H3R, sequence (Q9QYN8 whole entry): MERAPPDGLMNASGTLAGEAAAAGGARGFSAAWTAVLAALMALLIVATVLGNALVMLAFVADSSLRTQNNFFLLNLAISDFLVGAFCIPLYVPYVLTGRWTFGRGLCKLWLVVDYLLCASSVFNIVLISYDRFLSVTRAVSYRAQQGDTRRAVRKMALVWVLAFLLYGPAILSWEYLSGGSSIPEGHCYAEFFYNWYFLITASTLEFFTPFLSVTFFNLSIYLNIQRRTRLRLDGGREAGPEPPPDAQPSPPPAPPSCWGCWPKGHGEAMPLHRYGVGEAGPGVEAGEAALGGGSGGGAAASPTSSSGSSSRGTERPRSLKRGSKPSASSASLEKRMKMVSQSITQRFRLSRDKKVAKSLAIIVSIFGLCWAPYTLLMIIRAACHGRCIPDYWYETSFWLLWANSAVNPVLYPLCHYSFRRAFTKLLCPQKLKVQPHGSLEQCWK
T2 sequence (Q9QYN8 whole entry): as above

| Structure (SMILES) | Ki [1] [nM] | Emax (human H3R) [%] | EC50 (human H3R) [nM] | Emax (rat H3R; [5]) [%] | EC50 (rat H3R) [nM] | Ki [2] [nM] | EC50 [3] [nM] | Emax [3] [%] | EC50 [4] [nM] | Rat Maximum (%) [4] [%] | Rat Maximum (%) (rat H3R; [5]) |
| --- | --- | --- | --- | --- | --- | --- | --- | --- | --- | --- | --- |
| CC(C)(C)OC(=O)N1CCC(CNc2ccnc(N)n2)CC1 [Example 15, tert-butyl 4-((2-aminopyrimidin-4-ylamino)methyl)piperidine-1-carboxylate] | > 355 | 117 | 4790 | 138 | 7410 | > 331 | 43.6 | 39 | – | – | – |
| CN(C)CCN(C)c1ccnc(N)n1 [Example 3, N^4-(2-(dimethylamino)ethyl)-N^4-methylpyrimidine-2,4-diamine dihydrochloride] | 257 | – | – | – | – | > 309 | – | – | – | – | – |
| Cl.Cl.Nc1nccc(N[C@@H]2CCNC2)n1 [Example 18, (R)—N^4-(pyrrolidin-3-yl)pyrimidine-2,4-diamine dihydrochloride] | > 363 | 179 | 2510 | 162 | 1620 | 162 | – | – | 74 | 78.6 | – |
| Nc1nccc(N2C[C@H]3CN(Cc4ccccc4)C[C@H]3C2)n1 [Example 19, 4-((3aR,6aS)-5-benzylhexahydropyrrolo[3,4-c]pyrrol-2(1H)-yl)pyrimidin-2-amine] | 158 | – | – | 116 | 447 | 170 | 2110 | 50.2 | – | – | – |
| CN(CCCN)c1ccnc(N)n1 [Example 8, N^4-(3-aminopropyl)-N^4-methylpyrimidine-2,4-diamine dihydrochloride] | 316 | – | – | – | – | 195 | – | – | – | – | – |
| CNCCCNc1ccnc(N)n1 [Example 7, N^4-(3-(methylamino)propyl)pyrimidine-2,4-diamine dihydrochloride] | 28.2 | – | – | – | – | 81.3 | – | – | – | – | – |
| CN1CCN(c2ccnc(N)n2)CC1 [Example 13, 4-(4-methylpiperazin-1-yl)pyrimidin-2-amine] | 13.8 | 127 | 129 | 135 | 53.7 | 7.41 | – | – | – | – | – |
| Nc1nccc(N2CCC3(CC2)CNC3)n1 [Example 23, 4-(2,7-diazaspiro[3.5]nonan-7-yl)pyrimidin-2-amine trihydrochloride] | 67.6 | 147 | 513 | 126 | 110 | 12.3 | – | – | – | – | – |
| CC(C)(C)OC(=O)N1CCN(c2ccnc(N)n2)CC1 [Example 14, tert-butyl 4-(2-aminopyrimidin-4-yl)piperazine-1-carboxylate] | > 380 | – | – | – | – | > 355 | 316 | 67.6 | – | – | – |
| CN(C)CCCN(C)c1ccnc(N)n1.O=C(O)C(O)C(O)C(=O)O [Example 9, N^4-(3-(dimethylamino)propyl)-N^4-methylpyrimidine-2,4-diamine(2R,3R)-2,3-dihydroxysuccinate] | 182 | – | – | – | 1950 | > 309 | – | – | – | – | 110 |
| C[C@@H](N)Cc1c[nH]cn1 [R-α-methyl-histamine (RAMH), R-α-methyl-histamine, reference compound] | – | 240 | – | 224 | – | – | – | – | – | – | – |
| Nc1nccc(N2CCNCC2)n1 [Example 25, 4-(piperazin-1-yl)pyrimidin-2-amine dihydrochloride] | 24 | 150 | 132 | 141 | 30.2 | 5.75 | – | – | – | – | – |
| NCCCNc1ccnc(N)n1 [Example 6, N^4-(3-aminopropyl)pyrimidine-2,4-diamine dihydrochloride] | 61.7 | 162 | 537 | 168 | 309 | 13.2 | 13.4 | 93 | – | – | – |

The next lines start with results.

| Ki [1] [nM] | Emax (human H3R) [%] | EC50 (human H3R) [nM] | Emax (rat H3R; [5]) [%] | EC50 (rat H3R) [nM] | Ki [2] [nM] | EC50 [3] [nM] | Emax [3] [%] | EC50 [4] [nM] | Rat Maximum (%) [4] [%] | Structure (SMILES) | Rat Maximum (%) (rat H3R; [5]) |
| --- | --- | --- | --- | --- | --- | --- | --- | --- | --- | --- | --- |
| 72.4 | 139 | 871 | 136 | 324 | 24.5 | – | – | – | – | Nc1nccc(NC2CCN(Cc3ccccc3)CC2)n1 [Example 12, N^4-(1-benzylpiperidin-4-yl)pyrimidine-2,4-diamine 2,2,2-trifluoroacetate] | – |
| 324 | – | – | – | – | 105 | – | – | – | – | Nc1nccc(NC2CCNCC2)n1 [Example 24, N^4-(piperidin-4-yl)pyrimidine-2,4-diamine dihydrochloride] | – |
| > 363 | – | – | 130 | 2340 | > 339 | – | – | 4790 | 75.8 | CC(C)(C)OC(=O)N1CC[C@@H](Nc2ccnc(N)n2)C1 [Example 17, (R)-tert-butyl 3-(2-aminopyrimidin-4-ylamino)pyrrolidine-1-carboxylate] | – |
| > 339 | 111 | 5750 | – | – | > 316 | – | – | – | – | CC(C)(CN)CNc1ccnc(N)n1 [Example 11, N^4-(3-amino-2,2-dimethylpropyl)pyrimidine-2,4-diamine] | – |
| 162 | 120 | 115 | 135 | 214 | 55 | – | – | – | – | Nc1nccc(N2CCCN(Cc3ccccc3)CCC2)n1 [Example 21, 4-(5-benzyl-1,5-diazocan-1-yl)pyrimidin-2-amine] | – |
| 53.7 | 160 | 525 | 183 | 339 | 20 | 85.1 | 77.7 | – | – | CN(C)CCNc1ccnc(N)n1 [Example 2, N^4-(2-(dimethylamino)ethyl)pyrimidine-2,4-diamine 2,2,2-trifluoroacetate] | – |
| 33.1 | 216 | 457 | 156 | 676 | 97.7 | – | – | – | – | Nc1nccc(NC2CNC2)n1 [Example 22, N^4-(azetidin-3-yl)pyrimidine-2,4-diamine trihydrochloride] | – |
